# Data as given in US20060079453A1, “Hla binding peptides and their uses” (priority 2002, published 2006).
# Read-outs that look alike come from different tables or passages of the source. No end group written: not given here.
# What was measured:
# Assay in all cases: biochemical
# Assay type in all cases: binding
# HLA-DR DRB1*0401 (DR4) = HLA-DR DRB1*0401 (DR4) (Homo sapiens, UniProt P01903+P01911, A100K/A169T/F76Y/I96L/K127E/L162R/M171V/N62H/P40V/Q125Y/R42H/S133A/S149N/S66Y/V115G/V209L/W38E); settings: DRB1 *0401
# HLA-DR DRB4*0101 (DR53) = HLA-DR DRB4*0101 (DR53) (Homo sapiens, UniProt P01903+P13762, G164S)
# HLA-DR DRB1*0701 (DR7) = HLA-DR DRB1*0701 (DR7) (Homo sapiens, UniProt P01903+P01911, A100R/A102G/A103Q/D57E/D86V/E43K/F76Y/K127E/L162R/M171V/P40G/Q125H/Q99D/R33Q/R42Y/R54Q/S133A/S66F/T210M/V115G/Y107V/Y59L/Y89S); settings: DRB1 *0701
# HLA-DR DRB3*0101 (DR52) = HLA-DR DRB3*0101 (DR52) (Homo sapiens, UniProt P01903+P79483)
# HLA-DR DRB1*0301 (DR3) = HLA-DR DRB1*0301 (DR3) (Homo sapiens, UniProt P01903+P01911, A100K/A102G/A103R/A169T/F55Y/I96L/K41T/L162R/M171V/P40S/Q125H/Q178H/Q39Y/R42S/S66N/T106N/T262R/W38E/Y61H)
# HLA-DR DRB5*0101 (DR51) = HLA-DR DRB5*0101 (DR51) (Homo sapiens, UniProt P01903+Q30154)
# HLA-DR DRB1*1101 (DR11) = HLA-DR DRB1*1101 (DR11) (Homo sapiens, UniProt P01903+P01911, A100R/A169T/A87E/I96F/K41T/L162R/M171V/P40S/Q125H/Q178H/Q39Y/Q99D/R42S/S66Y/T262R/V115G/W38E)
# HLA-DR DRB1*1302 (DR13) = HLA-DR DRB1*1302 (DR13) (Homo sapiens, UniProt P01903+P01911, A100E/A169T/K41T/L162R/M171V/P40S/Q125H/Q178H/Q39Y/Q99D/R42S/S66N/T262R/V115G/W38E/Y61H)
# HLA-DR DRB1*1501 (DR15) = HLA-DR DRB1*1501 (DR15) (Homo sapiens, UniProt P01903+P01911)
# Sequence of HLA-DR DRB1*0301 (DR3) (P01903 26-254 limits assumed, other chains not shown): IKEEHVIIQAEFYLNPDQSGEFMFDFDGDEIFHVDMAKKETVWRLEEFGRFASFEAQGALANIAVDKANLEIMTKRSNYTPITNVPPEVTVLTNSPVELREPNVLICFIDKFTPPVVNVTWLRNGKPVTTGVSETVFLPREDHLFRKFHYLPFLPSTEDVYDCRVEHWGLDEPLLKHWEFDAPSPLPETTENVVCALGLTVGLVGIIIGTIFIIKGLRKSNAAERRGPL
# Sequence of HLA-DR DRB1*1101 (DR11) (P01903 26-254 limits assumed, other chains not shown): as above
# Sequence of HLA-DR DRB1*1302 (DR13) (P01903 26-254 limits assumed, other chains not shown): as above
Sequence,IC50 (HLA-DR DRB3*0101 (DR52)) [µM],IC50 (HLA-DR DRB4*0101 (DR53); read-out: DRB4 *0101) [µM],IC50 (HLA-DR DRB5*0101 (DR51); read-out: DRB5 *0101) [µM],IC50 (HLA-DR DRB1*1101 (DR11); read-out: DRB1 *1101) [µM],IC50 (HLA-DR DRB3*0101 (DR52); read-out: DRB3 *0101) [µM],IC50 (HLA-DR DRB1*1302 (DR13); read-out: DRBI *1302) [µM],IC50 (HLA-DR DRB1*1501 (DR15); read-out: DRBI *1501) [µM],further results
TAEYGDKWLDAKSTWYGKPT,> 20,,,,,,,IC50 (HLA-DR DRB1*0401 (DR4)): > 0.667 µM; IC50 (HLA-DR DRB4*0101 (DR53); DRB4 *0101): 10 µM; IC50 (HLA-DR DRB1*0701 (DR7)): 3.13 µM; IC50 (HLA-DR DRB1*0301 (DR3)): > 30 µM
TAWTIYRVEILRNFY,,0.026,0.518,5.05,14.4,0.072,,
TLERPKTLSPGKNGV,,25.7,11.3,> 52.6,> 263,0.835,23.3,
TPDKLTGPFTVRYTTEGGTK,> 25,,,,,,,IC50 (HLA-DR DRB1*0401 (DR4)): > 0.667 µM; IC50 (HLA-DR DRB1*0701 (DR7)): > 12.5 µM; IC50 (HLA-DR DRB1*0301 (DR3)): > 900 µM
VAQVRGGNIVFELANS,,0.1,64.4,> 50,> 21.9,2.8,,
VGGVYLLPRRGPRIGV,,19.2,0.012,0.088,60.8,> 15.4,0.0042,
VRVEILRNFYVINRL,,0.187,0.485,0.504,80.4,0.0058,0.00104,
VRYTTEGGTKSEVEDVIPEG,> 25,,,,,,,IC50 (HLA-DR DRB1*0401 (DR4)): > 0.667 µM; IC50 (HLA-DR DRB1*0701 (DR7)): > 12.5 µM; IC50 (HLA-DR DRB1*0301 (DR3)): > 30 µM
YGRILHYLKAKEDSH [YORILHYLKAKBDSH],455,,,,,,,IC50 (HLA-DR DRB4*0101 (DR53); DRB4 *0101): 0.14 µM; IC50 (HLA-DR DRB5*0101 (DR51); DRB5 *0101): 0.039 µM; IC50 (HLA-DR DRB1*1101 (DR11); DRB1 *1101): 0.812 µM; IC50 (HLA-DR DRB1*1501 (DR15); DRBI *1501): 0.016 µM; IC50 (HLA-DR DRB1*1302 (DR13); DRBI *1302): 2.78 µM
YKTIAYDEEARR,> 50,,,,,,,IC50 (HLA-DR DRB5*0101 (DR51); DRB5 *0101): ≥ 200 µM
YLVCGERGFFYTKPT,12.8,,,,,,,IC50 (HLA-DR DRB4*0101 (DR53); DRB4 *0101): 40.4 µM; IC50 (HLA-DR DRB5*0101 (DR51); DRB5 *0101): > 28.4 µM; IC50 (HLA-DR DRB1*1101 (DR11); DRB1 *1101): > 60.6 µM; IC50 (HLA-DR DRB1*1501 (DR15); DRBI *1501): > 25.6 µM; IC50 (HLA-DR DRB1*1302 (DR13); DRBI *1302): 3.47 µM
YLVTGERGFFYTKPT,,27.9,,,9.57,,> 21,
